The structures appear in SMILES notation. Where “and” joins values, the source holds several entries; their conditions need not be identical. Equal entries are not always repeated.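 Where inhibition never reached the appropriate level, the endpoint shown equals the highest concentration tested. Otherwise, values were interpolated linearly from a five-concentration, 48-hour dose response in 96-well plates. Here, GI50 denotes the concentration required for 50% inhibition of growth. Definition used: TGI = concentration required for complete inhibition of growth.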 Some results are limits rather than exact numbers.

Experimental findings from PubChem BioAssay (NCI) are described below.

This experiment concerns MDA-MB-468 breast. In words: growth of human tumour cells (NCI), 48 h.
In the case of `COc1ccc(C(c2ccc(OCCN(C)C)cc2)c2cc3ccccc3c3ccccc23)cc1` (stereo not given), the GI50 is 1580 nM and the TGI is 3150 nM.
On the same counts, the results for `COc1cc2c(cc1OC)C(Sc1ccc(SC)cc1)c1c(nc(N)c(C#N)c1N)O2` (stereo not given) are 1030 nM and 2620 nM.
On the same counts, the results for `COc1ccc(/C=c2\sc3n(c2=O)C2C(NN=3)N(C)C(=O)N2C)cc1` (stereo not given) are 231 nM and 783 nM.
`O=C1c2c(c3c4cc(O)ccc4oc3c3[nH]c4ccccc4c23)C(=O)N1O`: the GI50 was 478 nM and the TGI was determined as 1550 nM.
The like results for `COc1cccc(-c2ccc3c(c2)C2CCN(Cc4ccccc4)C3C2)c1` (stereo not given) were, in that order, 2890 nM and 16100 nM.
`CCN1C(=O)N(CC)C2SC(N/N=C/c3ccccc3)=NC21` (stereo not given): the GI50 is 293 nM.
As for `Oc1ccc(-c2nc3ccc4[nH]ncc4c3c3c2CCCC3)c(F)c1`, the GI50 was 4060 nM and the TGI was 20300 nM.
As to `NC(=S)n1c(=O)n(-c2cccc(C(F)(F)F)c2)c(=O)c2cc(-c3ccc(F)cc3F)ccc21`, the GI50 was 2010 nM and the TGI was determined as 5800 nM.
Take `COc1cccc(-c2nn(-c3ccccc3)cc2-c2ccnc(NCCNC(=O)Nc3cccc(C(F)(F)F)c3)c2)c1`: the GI50 was 1700 nM and the TGI came to 3430 nM.
The like results for `CCOc1cc(Br)c(C(C)NC(=O)c2cccc(OC)c2)cc1OCC` (stereo not given) were, in that order, 3460 nM and 54700 nM.
On the same counts, the results for `O=[N+]([O-])c1ccc(Oc2nc(Nc3ccc(O[C@H]4CO[C@H]5[C@@H]4OC[C@@H]5O)c(Cl)c3)ncc2F)c(Cl)c1` are 1470 nM and 4660 nM.
With `CCN1C(=O)CCCc2c1ccc(Nc1ncc(Cl)c(NC3[C@@H](C(N)=O)[C@@H]4C=C[C@H]3C4)n1)c2OC` (stereo not given in full), the GI50 was 1130 nM and the TGI is 4800 nM.
As for `COc1cc(NS(C)(=O)=O)ccc1Nc1c2ccccc2nc2ccccc12`, the GI50 was 469 nM [middle of 4 runs].
On to `O=C(CN1CCN(c2cc3c(cc2F)c(=O)c(C(=O)O)cn3C2CC2)CC1)Nc1nc(-c2ccc(Cl)cc2)cs1`, for which the GI50 was 3430 nM and the TGI came out at 30700 nM.
Turning to `CCCCCCNC(=O)Oc1ccc(/C(=C(/C)Cc2ccc(OC)cc2)c2ccc(OCCCN(C)C)cc2)cc1`, the GI50 was 16700 nM and the TGI stood at 32600 nM.
The like results for `COc1ccc2c(C3(c4cn(C)c5cc(OC)ccc45)C(=O)Nc4ccc(Cl)cc43)cn(C)c2c1` were, in that order, 2540 nM and 9080 nM.
As to `C=C(C)C(=O)O[C@H]1C[C@@]2(C)OC(=CC2=O)/C(CO)=C\[C@H]2OC(=O)C(=C)[C@H]12`, the GI50 is 41.6 nM and the TGI came to 127 nM.
In the case of `Cc1cc(Nc2nc(-c3cccnc3)nc3ccccc23)n[nH]1`, the GI50 was 1780 nM and the TGI amounted to 21400 nM.
The like results for `C=C1C(=O)O[C@H]2[C@H]1CC/C(COC(=O)CCSCCC(=O)OC/C1=C/CC[C@@]3(C)O[C@H]3[C@H]3OC(=O)C(=C)[C@@H]3CC1)=C\CC[C@@]1(C)O[C@@H]21` were, in that order, 358 nM and 1500 nM.
On the same counts, the results for `COc1cccc(/C=N/NC(=S)NC2CC3CCC2C3)c1O` (stereo not given) are 11400 nM and > 100000 nM.
On the same counts, the results for `Cc1ccc(C(NC(=O)c2ccccc2)c2ccc3cccnc3c2O)cc1` (stereo not given) are 219 nM and 788 nM.
For `Cn1nc(-c2ccc(Cl)cc2)nc2c(=O)n(C)c(=O)nc1-2`, the GI50 is 1180 nM and the TGI is 3350 nM.
On the same counts, the results for `COc1ccccc1C1=C(Nc2ccccc2)C(=O)NC1=O` are > 10300 nM and > 25000 nM.
For the compound `CC(C)N1CCN(Cc2ccc3c(NNC(=O)c4ccccc4)nc4cc(F)ccc4n23)CC1`, the GI50 is 260 nM and the TGI was determined as 1400 nM.
The like results for `CCC(c1ccc(OC)cc1)C(CC)c1ccc(O)c(CN2CCN(C)CC2)c1` (stereo not given) were, in that order, 2500 nM and 9770 nM.
As for `Cn1ccnc1C(=O)/C=C/c1ccc(CNC(=O)c2ccc(Cl)cc2)cc1`, the GI50 was 2050 nM and the TGI worked out at 4750 nM.
Turning to `Brc1ccc2[nH]cc(-c3nc(-c4c[nH]c5ncccc45)cs3)c2c1`, the GI50 is 2660 nM and the TGI stood at 10900 nM.
On the same counts, the results for `Nc1nc(N)c(C=Nc2ccc(Br)cc2)c(Nc2ccc(Br)cc2)n1` are 11000 nM and 23300 nM.
The like results for `CC1=C(CN(O)C(N)=O)C2=C(C)C3(CC3)[C@](C)(O)C(=O)C2=C1` were, in that order, 184 nM and 497 nM.
With `CC1=C(/C=C/C(C)=C/C=C/C(C)=C/C=N/NC(=S)NC(=S)N/N=C/C=C(C)/C=C/C=C(C)/C=C/C2=C(C)CCCC2(C)C)C(C)(C)CCC1`, the GI50 was 3250 nM and 2840 nM; the TGI is 10500 nM and 10200 nM.
For `Cc1cc2cc3ccc(N(C)C)cc3nc2cc1N`, the GI50 is 229 nM and the TGI came out at 1260 nM.
On the same counts, the results for `N#Cc1c(Br)n(C2OC(CO)C(O)C2O)c2ncnc(N)c12` (stereo not given) are 2010 nM and 6120 nM.
On the same counts, the results for `COC1=C(C)C(=O)c2c(c(CCCl)c3n2CCC3O)C1=O` (stereo not given) are 11100 nM and 34500 nM.
The like results for `COc1ccc(-c2ccc(-c3ccc(C(=N)N)nc3)s2)cc1Cl` were, in that order, 1740 nM and 3320 nM.
With `Cc1ccc(/C=C2\CN(C(=O)C(Cl)Cl)C/C(=C\c3ccc(C)cc3)C2=O)cc1`, the GI50 was 195 nM and the TGI was 427 nM.
On the same counts, the results for `FC(F)(F)c1ccc(-c2cnc(-n3cc(COCCN4CCCCC4)nn3)nc2NC2CCCCCC2)cc1` are 3540 nM and 7370 nM.
Consider `O=C(O)c1cn(C2CC2)c2cc(N3CCN(C(=O)Nc4nc(-c5ccccc5)cs4)CC3)c(F)cc2c1=O`, for which the GI50 is 563 nM and the TGI was determined as 6520 nM.
The like results for `CCN(Cc1ccc(F)cc1)c1ccc(CO)c(C)c1` were, in that order, 167 nM and 591 nM.
With `CC1=CC(=O)C(C(C)C)=CC1=Nc1cc(Br)c(O)c(Br)c1`, the GI50 was 3700 nM and the TGI turned out to be 15500 nM.
On the same counts, the results for `CC(=O)N1N=C(c2ccc(Nc3ccnc4cc(Cl)ccc34)cc2)CC1c1ccc(Cl)cc1` (stereo not given) are 2410 nM and > 100000 nM.
The like results for `CN(Cc1cccc(F)c1)c1ccc(CO)c(Cl)c1` were, in that order, 45.5 nM and 169 nM.
